# Laboratory results: patent US20060003920A1, “LAT1 transporters expressed in cancer cells” (Xenoport, Inc., priority 2004, published 2006)
# Target: T1, LAT1 and 4F2HC (Homo sapiens, UniProt Q01650)
# T1 construct: expressed in transfected cells; host or cells: Xenopus oocytes, injected with in vitro transcribed cRNA
# Assay: 14C-gabapentin uptake into Xenopus oocytes expressing LAT1 and 4F2HC
# Type: cell-based
# Conditions: Xenopus oocytes injected with LAT1 and 4F2HC cRNA vs noninjected controls
# Description: To assess transport function of a specific transporter protein, it can be desirable to clone the cDNA and express the protein in cells that have low endogenous transport activity. Human LAT1 was cloned by PCR, fully sequenced, and subcloned into plasmids that can be used for expression in mammalian cells or Xenopus oocytes. The co-subunit required for LAT1 function, 4F2HC (Genbank accession AB018010), was also cloned and sequenced. Unless otherwise noted, 4F2HC was also co-expressed in each heterologous system described in the examples. […] For expression in Xenopus oocytes, in vitro LAT1 and 4F2HC cRNA was prepared and injected into defoliculated oocytes.
# T1 sequence (Q01650 whole entry): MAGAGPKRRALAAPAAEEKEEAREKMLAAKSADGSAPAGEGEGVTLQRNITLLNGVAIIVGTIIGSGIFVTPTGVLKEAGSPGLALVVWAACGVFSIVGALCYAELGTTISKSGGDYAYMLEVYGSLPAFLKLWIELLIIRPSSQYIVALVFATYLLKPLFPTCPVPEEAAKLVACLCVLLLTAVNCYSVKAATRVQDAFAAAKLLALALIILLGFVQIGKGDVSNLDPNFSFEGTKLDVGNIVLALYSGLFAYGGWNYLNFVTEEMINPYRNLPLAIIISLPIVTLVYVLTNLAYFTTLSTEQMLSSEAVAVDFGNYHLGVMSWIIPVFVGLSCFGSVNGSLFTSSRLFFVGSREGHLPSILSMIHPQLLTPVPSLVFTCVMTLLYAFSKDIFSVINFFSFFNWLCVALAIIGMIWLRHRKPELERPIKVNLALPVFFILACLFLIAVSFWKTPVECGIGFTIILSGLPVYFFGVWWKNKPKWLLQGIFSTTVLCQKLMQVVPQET
# T1 sequence (P08195 102-630 partner): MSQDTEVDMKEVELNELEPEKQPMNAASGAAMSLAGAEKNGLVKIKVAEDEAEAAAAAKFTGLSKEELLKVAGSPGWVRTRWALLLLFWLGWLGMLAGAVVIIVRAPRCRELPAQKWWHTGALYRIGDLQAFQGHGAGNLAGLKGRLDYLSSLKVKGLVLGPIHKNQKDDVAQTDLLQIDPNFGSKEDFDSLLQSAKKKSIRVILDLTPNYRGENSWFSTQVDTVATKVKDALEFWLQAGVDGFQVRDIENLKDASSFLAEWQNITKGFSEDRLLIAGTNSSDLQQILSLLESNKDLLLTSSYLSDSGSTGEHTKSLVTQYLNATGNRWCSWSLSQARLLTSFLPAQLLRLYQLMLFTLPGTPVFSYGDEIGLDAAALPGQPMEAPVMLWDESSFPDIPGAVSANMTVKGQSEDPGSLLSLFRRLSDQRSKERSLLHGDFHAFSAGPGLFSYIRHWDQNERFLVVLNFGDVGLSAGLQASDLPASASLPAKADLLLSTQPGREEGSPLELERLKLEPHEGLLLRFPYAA
smiles,measurement,value
NCC1(CC(=O)O)CCCCC1 [Gabapentin],14C-gabapentin uptake into oocytes,higher levels of 14C-gabapentin uptake than noninjected controls
